Read-outs that look alike come from different tables or passages of the source.
How the values were obtained:
A. baumannii - AYE = format: cell-based; settings: drug at 4×MIC
Description: (§1) 1. Grow bacteria overnight.
(§2) 2. Subculture into an autoclaved conical flask containing 10 ml of TSB to an OD of 0.01 (˜1×10^7 Cfu/ml for KP-M6).
(§3) 4. Take aliquots (100 μl) at timepoints (0, 1, 2, 4, 6, 24 hours) and carry out a serial dilution in PBS (to remove drug and to dilute bacteria to countable numbers).
(§4) 5. Use the serial dilution to perform a Miles Misra—i.e. Add 3×10 μl spots of each dilution onto an agar plate. Incubate overnight and count colonies on spots in the morning.
(§5) 6. Control: Subculture bacteria alongside samples but with no antibiotic added. Take aliquots from this at every time point (0, 1, 2, 4, 6, 24 hours) and perform Miles Misra on these too (as detailed in points 4 and 5 above).
(§6) 7. After the first experiment, if the counts seen on Miles-Misra were zero, total viable counts were determined by spreading 200 μl in a streak down the centre of a TSB agar plate, waiting for the liquid to be absorbed and then spreading over the plate and checking for growth inhibition at the sight of the original streak.
(§7) 8. The compound is considered bactericidal if the inoculum was reduced >3 log10 CFU/ml and bacteriostatic if inoculum was reduced by 0-3 log10 CFU/ml.
(§8) Three measurements were taken for each compound at each time point. These measurements were averaged and the standard deviation was also calculated.

A. baumannii - NCTC13424 = format: cell-based; settings: drug at 4×MIC
Description: as §1, §2, §3, §4, §5, §6, §7, §8

[1] = test system: K. pneumonia - NCTC 13368; format: cell-based; settings: drug at 4×MIC
Description: as §1, §2, §3, §4, §5, §6, §7, §8

[2] = test system: K. pneumonia - NCTC 13438; format: cell-based; settings: drug at 4×MIC
Description: as §1, §2, §3, §4, §5, §6, §7, §8

E. coli gyrase = biological target: T1, E. coli gyrase (Escherichia coli, UniProt P0AES4+P0AES6); assay: Gyrase microplate assay; format: biochemical; settings: agent 10-75 μM, FIG. 6
T1 construct: purchased Inspiralis (Norwich, UK) TRG01
T1 sequence (P0AES4 whole entry, one chain of several): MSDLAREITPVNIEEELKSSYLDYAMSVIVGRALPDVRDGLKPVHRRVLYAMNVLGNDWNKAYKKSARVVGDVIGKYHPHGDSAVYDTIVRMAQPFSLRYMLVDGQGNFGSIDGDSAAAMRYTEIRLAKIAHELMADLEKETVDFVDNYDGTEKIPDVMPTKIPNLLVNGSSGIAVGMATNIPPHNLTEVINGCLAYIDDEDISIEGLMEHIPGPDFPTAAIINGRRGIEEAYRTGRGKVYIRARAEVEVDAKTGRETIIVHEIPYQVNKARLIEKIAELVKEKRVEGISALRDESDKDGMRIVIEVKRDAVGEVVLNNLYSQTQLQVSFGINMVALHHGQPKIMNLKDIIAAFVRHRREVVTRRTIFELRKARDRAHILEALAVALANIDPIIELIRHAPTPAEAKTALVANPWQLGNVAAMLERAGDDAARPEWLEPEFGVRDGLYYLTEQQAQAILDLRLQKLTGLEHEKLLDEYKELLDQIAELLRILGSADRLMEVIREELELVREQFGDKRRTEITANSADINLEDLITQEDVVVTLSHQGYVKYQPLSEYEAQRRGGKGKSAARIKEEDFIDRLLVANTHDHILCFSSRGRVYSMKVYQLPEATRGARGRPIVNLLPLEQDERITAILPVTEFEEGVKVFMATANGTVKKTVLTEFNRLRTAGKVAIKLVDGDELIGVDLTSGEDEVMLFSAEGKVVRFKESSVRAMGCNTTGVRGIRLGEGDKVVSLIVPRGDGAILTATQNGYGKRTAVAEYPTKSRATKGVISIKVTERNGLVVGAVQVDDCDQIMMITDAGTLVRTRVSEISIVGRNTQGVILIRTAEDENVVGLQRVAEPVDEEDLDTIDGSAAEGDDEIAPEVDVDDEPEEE
Description: (§9) The effect of the antimicrobial agents on gyrase was assessed using E. coli gyrase microplate assay kit (# TRG01) and with S. aureus gyrase microplate assay kit (# SATRG01). The effect of topoisomerase IV using was assessed using E. coli Topo IV microplate assay kit (# TRIV01) and with the S. aureus Topo IV microplate assay kit (# SATRIV01). All of these assay kits were obtained from Inspiralis (Norwich, UK). These assay kits are supplied with the relevant enzyme, substrate and buffers.
(§10) 1. Rehydrate wells with 3×200 μl Wash buffer (diluted from 20× stock with ultra-pure water).
(§11) 2. Immobilise 100 μl of 500 nM TF01 oligo in each well (5 μl of 10 μM TF01 oligo in 95 μl wash buffer).
(§12) 3. Incubate 5 minutes at room temperature.
(§13) 4. Wash off excess oligo with 3×200 μl Wash buffer.
(§14) 5. Incubate 2U (0.4 μl stock) of gyrase with 0.75 μg of relaxed pN01 in a reaction volume of 30 μl at 37° C. for 30 minutes in assay buffer—This is the part agent is added therefore the reaction volume is adjusted to account for this.
(§15) 6. Add 100 μl TF buffer (diluted from 20× stock) to well and incubate for a further 30 minutes at room temperature to allow triplex formation.
(§16) 7. Remove liquid from well and wash with 3×200 μl TF buffer to wash away unbound plasmid.
(§17) 8. Stain with DNA detection dye (diluted to ix with T10 buffer). Add 200 μl per well and incubate for 10-20 minutes at room temperature.
(§18) 9. Mix well and read in fluorescence plate reader Excitation wavelength: 495 nm; Emission wavelength: 537 nm. Use 485/520 filters in plate reader in 231.
(§19) 10. If required 10 μl of sample can be used to run on 1% agarose gel.
(§20) As the reaction volume is 30 μl make concentrations at 30× greater than required so 1 μl of the appropriate concentration can be added to the reaction. For each agent concentrations from a range of 10-75 μM.
(§21) Xmin—minima among all data points
(§22) Xmax—maxima among all data points
(§23) Xi0-1—data point normalised between 0-1

S. aureus gyrase = biological target: T2, S. aureus gyrase (Staphylococcus aureus, UniProt P0A0K8+P20831); assay: Gyrase microplate assay; format: biochemical; settings: agent 10-75 μM, FIG. 6
T2 construct: purchased Inspiralis (Norwich, UK) SATRG01
T2 sequence (P0A0K8 whole entry): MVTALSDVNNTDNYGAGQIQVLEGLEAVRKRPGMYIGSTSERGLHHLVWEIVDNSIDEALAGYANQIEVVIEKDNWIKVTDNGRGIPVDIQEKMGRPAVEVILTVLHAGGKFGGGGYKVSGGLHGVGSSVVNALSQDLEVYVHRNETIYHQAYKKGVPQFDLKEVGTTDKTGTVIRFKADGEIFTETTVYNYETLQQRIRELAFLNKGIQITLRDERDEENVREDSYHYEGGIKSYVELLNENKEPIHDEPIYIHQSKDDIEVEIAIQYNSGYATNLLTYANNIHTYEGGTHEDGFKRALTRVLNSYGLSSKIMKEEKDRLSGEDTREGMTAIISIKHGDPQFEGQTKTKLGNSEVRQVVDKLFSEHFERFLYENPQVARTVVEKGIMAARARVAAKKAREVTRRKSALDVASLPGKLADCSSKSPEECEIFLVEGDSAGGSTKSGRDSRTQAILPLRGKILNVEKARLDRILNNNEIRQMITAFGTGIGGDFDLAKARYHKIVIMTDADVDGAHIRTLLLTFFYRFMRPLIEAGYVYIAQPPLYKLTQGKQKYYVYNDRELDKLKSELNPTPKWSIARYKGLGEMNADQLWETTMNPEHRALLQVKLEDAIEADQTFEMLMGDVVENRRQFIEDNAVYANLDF
T2 sequence (P20831 whole entry): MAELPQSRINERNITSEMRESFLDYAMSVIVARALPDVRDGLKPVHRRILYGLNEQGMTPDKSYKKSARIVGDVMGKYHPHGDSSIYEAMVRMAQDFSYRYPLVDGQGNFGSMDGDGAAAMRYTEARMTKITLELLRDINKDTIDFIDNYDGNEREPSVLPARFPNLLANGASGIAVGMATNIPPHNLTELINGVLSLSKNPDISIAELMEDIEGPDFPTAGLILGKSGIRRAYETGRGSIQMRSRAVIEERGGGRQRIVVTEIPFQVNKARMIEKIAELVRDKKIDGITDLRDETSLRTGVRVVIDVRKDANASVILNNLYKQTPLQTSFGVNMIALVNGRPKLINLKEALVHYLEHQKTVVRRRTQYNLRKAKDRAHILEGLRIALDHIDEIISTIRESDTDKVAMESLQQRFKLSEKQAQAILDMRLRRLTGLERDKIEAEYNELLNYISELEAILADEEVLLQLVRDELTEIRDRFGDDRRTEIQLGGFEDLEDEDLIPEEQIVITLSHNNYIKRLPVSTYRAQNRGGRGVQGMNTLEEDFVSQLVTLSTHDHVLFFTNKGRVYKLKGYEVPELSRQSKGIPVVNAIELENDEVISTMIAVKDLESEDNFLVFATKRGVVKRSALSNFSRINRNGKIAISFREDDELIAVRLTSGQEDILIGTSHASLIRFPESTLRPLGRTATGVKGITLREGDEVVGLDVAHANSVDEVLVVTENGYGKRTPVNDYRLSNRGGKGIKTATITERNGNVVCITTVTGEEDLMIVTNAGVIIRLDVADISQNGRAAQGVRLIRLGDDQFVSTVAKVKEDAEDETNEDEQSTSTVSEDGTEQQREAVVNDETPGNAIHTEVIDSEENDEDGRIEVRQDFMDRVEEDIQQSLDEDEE
Description: as §9, §10, §11, §12, §13, §14, §15, §16, §17, §18, §19, §20, §21, §22, §23

## O=C(O)c1cn(C2CC2)c2cc(N3CCNCC3)c(F)cc2c1=O [CIP, ciprofloxacin, reference compound]
A. baumannii - AYE; time-point 1 hours
  Average (CFU/ml): 2e+06 CFU/ml
  n = 1 (CFU/ml): 2.1e+06 CFU/ml
  n = 2 (CFU/ml): 1.9e+06 CFU/ml
A. baumannii - AYE; time-point 2 hours
  Average (CFU/ml): 900000 CFU/ml
  n = 1 (CFU/ml): 1.2e+06 CFU/ml
  n = 2 (CFU/ml): 600000 CFU/ml
A. baumannii - AYE; time-point 4 hours
  Average (CFU/ml): 750000 CFU/ml
  n = 1 (CFU/ml): 800000 CFU/ml
  n = 2 (CFU/ml): 700000 CFU/ml
A. baumannii - AYE; time-point 6 hours
  Average (CFU/ml): 2.1e+06 CFU/ml
  n = 1 (CFU/ml): 2e+06 CFU/ml
  n = 2 (CFU/ml): 2.2e+06 CFU/ml
A. baumannii - AYE; time-point 24 hours
  n = 1 (CFU/ml): 7e+08 CFU/ml
  n = 2 (CFU/ml): 1.4e+08 CFU/ml
A. baumannii - NCTC13424; time-point 1 hours
  Average (CFU/mL): 2.57e+06 CFU/mL
  n = 1 (CFU/mL): 2.5e+06 CFU/mL
  n = 2 (CFU/ml): 2.2e+06 CFU/ml
  n = 3 (CFU/mL): 3e+06 CFU/mL
A. baumannii - NCTC13424; time-point 2 hours
  Average (CFU/mL): 42000 CFU/mL
  n = 1 (CFU/mL): 80000 CFU/mL
  n = 2 (CFU/ml): 21000 CFU/ml
  n = 3 (CFU/mL): 25000 CFU/mL
A. baumannii - NCTC13424; time-point 4 hours
  Average (CFU/mL): 7330 CFU/mL
  n = 1 (CFU/mL): 12000 CFU/mL
  n = 2 (CFU/ml): 1000 CFU/ml
  n = 3 (CFU/mL): 9000 CFU/mL
A. baumannii - NCTC13424; time-point 6 hours
  Average (CFU/mL): 11200 CFU/mL
  n = 1 (CFU/mL): 10000 CFU/mL
  n = 2 (CFU/ml): 14300 CFU/ml
  n = 3 (CFU/mL): 9200 CFU/mL
A. baumannii - NCTC13424; time-point 24 hours
  n = 1 (CFU/mL): 3.6e+08 CFU/mL
  n = 2 (CFU/ml): 1.9e+09 CFU/ml
  n = 3 (CFU/mL): 2.75e+09 CFU/mL
[1]; time-point 1 hours
  Average (CFU/ml): 2.38e+06 CFU/ml
  n = 2 (CFU/ml): 110000 CFU/ml
  n = 3 (CFU/ml): 28000 CFU/ml
  viable count: 7e+06 CFU/mL
[1]; time-point 2 hours
  Average (CFU/ml): 118000 CFU/ml
  n = 2 (CFU/ml): 650 CFU/ml
  n = 3 (CFU/ml): 2500 CFU/ml
  viable count: 350000 CFU/mL
[1]; time-point 4 hours
  Average (CFU/ml): 75.3 CFU/ml
  n = 2 (CFU/ml): 55 CFU/ml
  n = 3 (CFU/ml): 170 CFU/ml
  viable count: 0 CFU/mL
[1]; time-point 6 hours
  Average (CFU/ml): 65.3 CFU/ml
  n = 2 (CFU/ml): 80 CFU/ml
  n = 3 (CFU/ml): 115 CFU/ml
  viable count: 0 CFU/mL
[1]; time-point 24 hours
  Average (CFU/ml): 0 CFU/ml
  n = 2 (CFU/ml): 0 CFU/ml
  n = 3 (CFU/ml): 0 CFU/ml
  viable count: 0 CFU/mL
[2]; time-point 1 hours
  n = 1 (CFU/ml): 1e+07 CFU/ml
  n = 2 (CFU/ml): 9e+06 CFU/ml
[2]; time-point 2 hours
  n = 1 (CFU/ml): 3.8e+07 CFU/ml
  n = 2 (CFU/ml): 3.7e+07 CFU/ml
[2]; time-point 4 hours
  Average (Log CFU/ml): 1.17E+09 Log CFU/ml
  n = 1 (CFU/ml): 1.5e+09 CFU/ml
  n = 2 (CFU/ml): 1e+09 CFU/ml
[2]; time-point 6 hours
  Average (Log CFU/ml): 3.07E+09 Log CFU/ml
  n = 1 (CFU/ml): 3.9e+09 CFU/ml
  n = 2 (CFU/ml): 2.5e+09 CFU/ml
[2]; time-point 24 hours
  Average (Log CFU/ml): 6.23E+09 Log CFU/ml
  n = 1 (CFU/ml): 6e+09 CFU/ml
  n = 2 (CFU/ml): 6.7e+09 CFU/ml
E. coli gyrase
  effect on gyrase: inhibits
S. aureus gyrase
  effect on gyrase: inhibits

From US10640507B2, “PBD antibacterial agents” (KING'S COLLEGE LONDON, priority 2015, dated 2020)
